The values below are quoted from earlier work in patent EP0530832A1, “Method for processing a silver halide color photographic light-sensitive material” (KONICA CORPORATION, priority 1991, dated 1993).

The subject of this data set is rats. To be noted: rats in an environment containing 15 ppm of formalin.

Consider `C=O` [formalin], for which the nasal cancers entry is listed as “developed nasal cancers”.
